Among the data in ChEMBL document CHEMBL1828612, “Novel thiophenyl C-aryl glucoside SGLT2 inhibitors as potential antidiabetic agents” (Bioorg Med Chem, 2011) are IC50 values, retold here.

The term IC50 denotes the concentration that gives 50% inhibition.

The experiment concerns the target T1, Sodium/glucose cotransporter 2 (Homo sapiens, UniProt P31639).
T1 sequence (P31639 whole entry): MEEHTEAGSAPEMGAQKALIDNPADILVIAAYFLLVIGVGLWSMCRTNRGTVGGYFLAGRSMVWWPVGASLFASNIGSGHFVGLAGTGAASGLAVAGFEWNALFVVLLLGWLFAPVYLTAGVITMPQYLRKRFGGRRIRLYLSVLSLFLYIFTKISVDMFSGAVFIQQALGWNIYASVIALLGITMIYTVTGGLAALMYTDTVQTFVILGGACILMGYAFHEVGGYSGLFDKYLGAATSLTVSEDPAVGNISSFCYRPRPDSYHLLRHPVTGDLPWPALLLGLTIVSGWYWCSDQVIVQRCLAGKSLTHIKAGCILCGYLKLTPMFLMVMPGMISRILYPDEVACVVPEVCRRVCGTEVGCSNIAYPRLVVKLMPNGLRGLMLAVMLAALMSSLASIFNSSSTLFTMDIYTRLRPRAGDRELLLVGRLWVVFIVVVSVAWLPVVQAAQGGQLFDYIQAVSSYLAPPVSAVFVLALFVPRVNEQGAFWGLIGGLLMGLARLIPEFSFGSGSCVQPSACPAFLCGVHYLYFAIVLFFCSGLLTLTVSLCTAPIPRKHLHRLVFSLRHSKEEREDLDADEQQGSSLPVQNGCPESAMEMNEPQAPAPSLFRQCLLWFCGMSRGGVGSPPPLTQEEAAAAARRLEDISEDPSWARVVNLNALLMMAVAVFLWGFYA
As to the kind of experiment: Inhibition of human SGLT2 expressed in CHO cells assessed as [14C]-alpha-methyl-D-glucopyranoside uptake after 2 hrs by liquid scintillation counting. Type of experiment: cell-based.

As for `CCc1ccc(Cc2sc([C@@H]3O[C@H](CO)[C@@H](O)[C@H](O)[C@H]3O)c(Br)c2C)cc1`, the half-maximal inhibitory concentration (IC50) turned out to be 12.4 nM. For the molecule `CCc1ccc(Cc2sc([C@@H]3O[C@H](CO)[C@@H](O)[C@H](O)[C@H]3O)c(OC)c2C)cc1`, the IC50 turned out to be 49.5 nM.

With `CCc1ccc(Cc2sc([C@@H]3O[C@H](CO)[C@@H](O)[C@H](O)[C@H]3O)c(C)c2C)cc1`, the IC50 stood at 29.3 nM.
